tested on: MT-4 cells; experiment: Cytotoxicity assay in MT-4 cells; format: cell-based; conditions: concentration required to reduce the viability of uninfected MT-4 cells by 50%; three days

Compound	CC50
(S)-2-((3-(2,3-dihydro-1H-pyrrolo[3,4-c]pyridine-2-carbonyl)phenyl) sulfonamido)-N-(4-methoxyphenyl)-N-methyl-3-phenylpropanamide [Compound I-10c]	> 8.76 µM

tested on: not listed separately; experiment: Cytotoxicity assay in MT-4 cells; format: cell-based; conditions: human, uninfected MT-4 cells

Compound	CC50 at 3 days
COc1ccc(N(C)C(=O)[C@H](Cc2ccccc2)NC(=O)C(=O)Nc2ccc([N+](=O)[O-])cc2)cc1 [III-16f, (S)-N1-(1-((4-methoxyphenyl)(methyl)amino)-1-oxo-3-phenylpropan-2-yl)–N2-(4-nitrophenyl)oxalamide]	> 10.2 µM

tested on: HIV-1 NL4–3 Nanoluc-sec virus; experiment: not given; format: cell-based; conditions: concentration that inhibits HIV-1NL4–3 nanoluc-sec infection of MT-4 cells by 50%; three days

Compound	EC50
(S)-2-((3-(2,3-dihydro-1H-pyrrolo[3,4-c]pyridine-2-carbonyl)phenyl) sulfonamido)-N-(4-methoxyphenyl)-N-methyl-3-phenylpropanamide [Compound I-10c]	> 8.76 µM

same assay, conditions: tested concentration 5 μg/mL, MT-4 cells

Compound	antiviral activity at the tested concentration
COc1ccc(N(C)C(=O)[C@H](Cc2ccccc2)NC(=O)c2cccc(S(=O)(=O)N3CCc4ccccc43)c2)cc1 [Compound V-25d, (S)-3-(indolin-1-ylsulfonyl)-N-(1-((4-methoxyphenyl)(methyl)amino)-1-oxo-3-phenylpropan-2-yl)benzamide]	loss of antiviral activity
COc1ccc(N(C)C(=O)[C@H](Cc2ccccc2)NC(=O)c2cccc(S(=O)(=O)N3CCc4cc(OC)ccc43)c2)cc1 [Compound V-25e, (S)-3-((5-methoxyindolin-1-yl)sulfonyl)-N-(1-((4-methoxyphenyl) (methyl)amino)-1-oxo-3-phenylpropan-2-yl)benzamide]	loss of antiviral activity
COc1ccc(N(C)C(=O)[C@H](Cc2ccccc2)NC(=O)c2cccc(S(=O)(=O)N3CCc4cc([N+](=O)[O-])ccc43)c2)cc1 [Compound V-25f, (S)-N-(1-((4-methoxyphenyl)(methyl)amino)-1-oxo-3-phenylpropan-2-yl)-3-((5-nitroindolin-1-yl)sulfonyl)benzamide]	loss of antiviral activity
COc1ccc(N(C)C(=O)[C@H](Cc2ccccc2)NC(=O)c2cccc(S(=O)(=O)Nc3ccc(C(F)(F)F)cc3)c2)cc1 [Compound V-25j, (S)-N-(1-((4-methoxyphenyl)(methyl)amino)-1-oxo-3-phenylpropan-2-yl)-3-(N-(4-(trifluoromethyl)phenyl)sulfamoyl)benzamide]	loss of antiviral activity
COc1ccc(N(C)C(=O)[C@H](Cc2ccccc2)NS(=O)(=O)CC(=O)N2CCc3cc([N+](=O)[O-])ccc32)cc1 [II-13 g, (S)-N-(4-methoxyphenyl)-N-methyl-2-((2-(5-nitroindolin-1-yl)-2-oxoethyl)sulfonamido)-3-phenylpropanamide]	lost their activity
COc1ccc(N(C)C(=O)[C@H](Cc2ccccc2)NS(=O)(=O)CC(=O)Nc2ccc3ncsc3c2)cc1 [II-13b, (S)-2-((2-(benzo[d]thiazol-6-ylamino)-2-oxoethyl)sulfonamido)-N-(4-methoxyphenyl)-N-methyl-3-phenylpropanamide]	lost their activity
COc1ccc(N(C)C(=O)[C@H](Cc2ccccc2)NS(=O)(=O)CC(=O)N2CCc3cc(OC)ccc32)cc1 [II-13d, (S)-2-((2-(5-methoxyindolin-1-yl)-2-oxoethyl)sulfonamido)-N-(4-methoxyphenyl)-N-methyl-3-phenylpropanamide]	lost their activity
COc1ccc(N(C)C(=O)[C@H](Cc2ccccc2)NS(=O)(=O)CC(=O)Nc2cc(F)cc(F)c2)cc1 [II-13e, (S)-2-((2-((3,5-difluorophenyl)amino)-2-oxoethyl)sulfonamido)-N-(4-methoxyphenyl)-N-methyl-3-phenylpropanamide]	lost their activity
COc1ccc(N(C)C(=O)[C@H](Cc2ccccc2)NS(=O)(=O)CC(=O)n2ncc3ccccc32)cc1 [II-13f, (S)-2-((2-(1H-indazol-1-yl)-2-oxoethyl)sulfonamido)-N-(4-methoxyphenyl)-N-methyl-3-phenylpropeanamide]	lost their activity
COc1ccc(N(C)C(=O)[C@H](Cc2ccccc2)NC(=O)c2cccc(S(=O)(=O)Nc3cc(F)cc(F)c3)c2)cc1 [V-25 h, (S)-3-(N-(3,5-difluorophenyl)sulfamoyl)-N-(1-((4-methoxyphenyl)(methyl)amino)-1-oxo-3-phenylpropan-2-yl)benzamide]	loss of antiviral activity

— PMC9127657 (Bioorganic & medicinal chemistry, 2021)
